Values after ≈ are worked out from the molar mass of the structure shown. Bridge positions count the residues as written; N and C are the ends. Square brackets hold non-standard residues; d marks the D form. Peptide text beside a SMILES is read from it. I, II: the chains in the order shown. Aoc = NCCCCCCCC(=O)O
How the values were obtained:
S. mutans [1] = assay type: cell-based, Streptococcus mutans; details: average MIC with standard deviation, n = 10 assays
Method: (§1) The active AMPs, STAMPs and the like can be identified and/or validated using an in vitro screening assay. Indeed, in many instances the AMPs and/or STAMPS described herein will be used in vitro as preservatives, topical antimicrobial treatments, and the like.
(§2) Typically, the in vitro antimicrobial activity of antimicrobial agents is tested using standard NCCLS bacterial inhibition assays, or MIC tests (see, National Committee on Clinical Laboratory Standards “Performance Standards for Antimicrobial Susceptibility Testing,” NCCLS Document M100-S5 Vol. 14, No. 16, December 1994; “Methods for dilution antimicrobial susceptibility test for bacteria that grow aerobically-Third Edition,” Approved Standard M7-A3, National Committee for Clinical Standards, Villanova, Pa.).
(§3) Briefly, ˜1×10^5 cfu/mL bacteria were diluted in TH (S. mutans), or Mueller-Hinton (MH) broth (all other organisms) and distributed to 96-well plates. Serially-diluted (2-fold) peptides were then added and the plates incubated at 37° C. for 18-24 h. […] All experiments were conducted 10 times.

P. aeruginosa [2] = details: average MIC with standard deviation, n = 10 assays
Method: (§4) The active AMPs, STAMPs and the like can be identified and/or validated using an in vitro screening assay.
as §3, with “Peptides were evaluated for basic antimicrobial activity by broth microdilution, as described previously (Eckert et al. (2006) Antimicrob Agents Chemother., 50: 3651-3657; Eckert et al. (2006) Antimicrob Agents Chemother., 50: 1480-1488). Briefly,” for “Briefly,”

S. epidermidis [3] = details: average MIC with standard deviation, n = 10 assays
Method: as §4
as §3, with “Peptides were evaluated for basic antimicrobial activity by broth microdilution, as described previously (Eckert et al. (2006) Antimicrob Agents Chemother., 50: 3651-3657; Eckert et al. (2006) Antimicrob Agents Chemother., 50: 1480-1488). Briefly,” for “Briefly,”

E. coli [4] = assay type: cell-based, Escherichia coli; details: average MIC with standard deviation, n = 10 assays
Method: as §1, §2, §3

[5] = system: Klebsiella pneumoniae KAY 2026; assay type: cell-based; details: K. pneumoniae; average MIC with standard deviation, n = 10 assays
Method: (§5) Streptococcus mutans JM11 (spectinomycin resistant, UA140 background) was grown in Todd-Hewitt (TH) broth under anaerobic conditions (80% N2, 15% CO2, 5% H2) at 37° C. Merritt et al. (2005) J Microbiol Meth., 61: 161-170. All bacteria were grown overnight to an OD600 of 0.8-1.0 prior to appropriate dilution and antimicrobial testing.
as §3

[6] = system: Staphylococcus aureus Newmann; assay type: cell-based; details: S. aureus; average MIC with standard deviation, n = 10 assays
Method: as §5, §3

S. mutans [7] = assay: Post-antibiotic effect assay, monoculture growth after 10 min treatment; assay type: cell-based, Streptococcus mutans; details: peptide 10 min, then fresh medium
Method: The activity and selectivity of MH-STAMPs after a 10 min incubation was determined by growth retardation experiments against targeted and untargeted bacteria in monocultures, as described previously (Id.). Cells from overnight cultures were diluted to ˜5×10^6 cfu/mL in MH (or TH with 1% sucrose for S. mutans), normalized by OD600 0.05-0.1 and seeded to 96-well plates. Cultures were then grown under the appropriate conditions for 2 h (3 h for S. mutans) prior to the addition of peptides for 10 min. Plates were then centrifuged at 3000×g for 5 min, the supernatants discarded, fresh medium returned (MH or TH without sucrose for S. mutans), and incubation resumed. Bacterial growth after treatment was then monitored over time by OD600.
MH-STAMP antimicrobial kinetics was ascertained utilizing a variation of the classical post-antibiotic effect assay, which measures the ability of an agent to affect an organism's growth after a short exposure period. Monocultures of MH-STAMP-targeted and untargeted organisms were exposed to M8(KH)-20, M8(BL)-20, BL(KH)-20, or unmodified BD2.20, then allowed to recover. […] Furthermore, replacement of the targeting region with a non-binding peptide abolishes specific activity.

S. mutans [8] = assay: Microbial population shift assay, mixed planktonic culture; assay type: cell-based, Streptococcus mutans; details: 10 μM peptide, 24 h, detection limit 200 cfu/mL
Method: (§6) Peptide (10 μM) or mock-treatment (1×PBS) was then added and samples were incubated at 37° C. for 24 h under anaerobic conditions (80% N2, 15% CO2, 5% H2). […] Plates were then incubated 37° C. under aerobic conditions (TH plates were incubated anaerobically) and colonies counted after 24 h to determine survivors. […] Gram stains and direct microscopic observation (from select isolated colonies) were undertaken to confirm species identity (data not shown). The detection limit of the assay was 200 cfu/mL.
(§7) We hypothesized that potential MH-STAMP dual-functionality could affect a particular set of bacteria within a mixed population, thereby promoting the outgrowth of non-targeted organisms and “shifting” the constituent makeup. To examine this possibility, defined mixed populations of planktonic cells were treated continuously and the make-up of the community examined after 24 h.

P. aeruginosa [9] = assay: as above; assay type: cell-based, Pseudomonas aeruginosa; details: 10 μM peptide, 24 h, detection limit 200 cfu/mL
Method: as §6, §7

E. coli [10] = assay: as above; assay type: cell-based, Escherichia coli; details: 10 μM peptide, 24 h, detection limit 200 cfu/mL
Method: as §6, §7

S. epidermidis [11] = assay: as above; assay type: cell-based, Staphylococcus epidermidis; details: 10 μM peptide, 24 h, detection limit 200 cfu/mL
Method: as §6, §7

S. mutans UA140 biofilms = assay: Photodynamic antimicrobial assay against single-species biofilms; assay type: cell-based, Streptococcus mutans; details: 5 μM, no light
Method: To evaluate C16-RB against monoculture biofilms, S. mutans UA140 was grown overnight in TH prior to inoculation for biofilm formation. For biofilms, 1:5000 dilution of overnight culture was made into TH with 1% sucrose in 2 mL centrifuge tubes (200 μL volume) and grown 24 h under anaerobic conditions. After incubation, biofilms were treated for 5 min with 5 or 25 μM C16-RB or 5 μM RB in 1×PBS, or PBS alone, followed by removal of supernatant and exposure to 5 min blue light (emission 400-550 nm, power 400 mW/cm^2) from an Astralis 7 (Ivoclar Vivodent, Austria) handheld LED commonly used as a dental curing light. The light source was suspended 4 cm from the tube bottom (even with the mouth of the tube). A duplicate set of samples were left covered to serve as dark controls. After treatment, biofilms were mechanically disrupted and plated to determine cfu/mL.
After synthesis, the basic photosensitization potential of C16-RB was assessed by challenging mature single-species S. mutans biofilms (grown 24 h) with C16-RB or unmodified RB, followed by blue emission from a dental curing light.

[12] = system: S. mutans JM11 and non-cariogenic oral streptococci in mixed biofilms; assay: Selective photodynamic assay against multispecies biofilms; assay type: cell-based, Streptococcus mutans; details: mixed biofilm, blue light, plus potassium gluconate
Method: To gauge C16-RB selectivity for S. mutans, similar assays were conducted against multispecies biofilms. Mixed biofilms were seeded by diluting (1:5000) a mixture of equal parts S. oralis, S. gordonii, S. mitis, S. sanguinis, S. salivarius, and S. mutans JM11 (made from overnight cultures) into TH with 1% sucrose, 1% glucose, and 1% mannose. Biofilms were incubated and treated as described above with the addition of vitamin C or potassium gluconate. After the addition of agent and 5 min incubation, biofilms were washed 1× with 1×PBS prior to light exposure. After PDT and biofilm disruption, survivors were plated on TH, and TH supplemented with 800 μg/mL spectinomycin, which allowed for quantitation of surviving total oral streptococci and surviving S. mutans, respectively.
C16-RB was next evaluated for selectivity in mixed cultures containing S. mutans and non-cariogenic oral streptococci that compete for the same niche on the tooth surface. We utilized mixed biofilms of S. mutans transformed with spectinomycin resistance (strain JM11, Merritt, et al., 2005), plus S. oxalis, S. gordonii, S. mitis, S. sanguinis, and S. salivarius. The mixed cultures were grown 24 and then treated with RB or C16-RB as indicated, plus potassium gluconate to minimize killing of untargeted bacteria by reducing the superoxide-producing activity of the free C16-RB not bound to S. mutans. […]

BHK-21 fibroblasts = assay: Cytotoxicity, Promega CellTiterGlo assay; assay type: cell-based, hamster; details: BHK cells
Method: Streptococcus oralis ATCC 10557, Streptococcus gordonii (Challis), Streptococcus sanguinis (NY101), Streptococcus mitis ATCC 903, Streptococcus salivarius ATCC 13419 and S. mutans wild-type UA140 and JM11 (spectinomycin-resistant) strains were grown in Todd-Hewitt (TH) broth 37° C. in an anaerobic atmosphere of 80% N2, 10% CO2, and 10% H2. BHK-21 (ATCC CRL-10) fibroblasts were propagated in DMEM with 10% FBS, 1 mM sodium pyruvate, 100 units/mL penicillin G, and 100 μg/mL streptomycin at 37° C. with 5% CO2. Cells were detached with 0.25% trypsin and subcultured as recommended by the supplier.
The effect of RB and C16-RB on human fibroblasts was ascertained by utilizing the Promega CellTiterGlo assay, as described by the manufacturer. Briefly, fibroblasts were grown to confluence, detached, and seeded to ˜5,000 cells per well in a 96-well opaque walled, clear bottom 96-well plate (Nunc International). For long-term dark toxicity, cells were allowed to attach to for 18 h before the culture medium was replaced with medium plus serially-diluted RB or C16-RB (200 μM to 390 nM) or medium alone. After 18-24 h, equal volume Cell Titer Glo reagent was added to each well and mixed. Luciferace activity was then quantified to measure cell viability (Varian Fluorometer in Biolumenescence mode). […] After exposure, cultures were disrupted with Cell Titer Glo and luciferase activity quantitated as above.

**Q.** How did the MIC (S. mutans [1]) turn out when CC[C@H](C)[C@H](NC(=O)[C@H](Cc1ccccc1)NC(=O)CCCCCCCNC(=O)[C@H](CCCCNC(=O)CNC(=O)CNC(=O)CNC(=O)[C@H](C)NC(=O)[C@H](CCC(=O)O)NC(=O)[C@H](CC(N)=O)NC(=O)[C@H](C)NC(=O)[C@H](C)NC(=O)[C@@H](N)CC(=O)O)NC(=O)CNC(=O)CNC(=O)CNC(=O)[C@H](CCCNC(=N)N)NC(=O)[C@H](CC(N)=O)NC(=O)[C@H](CC(C)C)NC(=O)[C@H](Cc1ccccc1)NC(=O)[C@H](CCCNC(=N)N)NC(=O)[C@H](Cc1ccccc1)NC(=O)[C@H](Cc1ccccc1)NC(=O)[C@@H](NC(C)=O)[C@@H](C)O)C(=O)N[C@@H](CCCNC(=N)N)C(=O)N[C@@H](CCCCN)C(=O)N[C@@H](Cc1ccccc1)C(=O)N[C@@H](CC(C)C)C(=O)N[C@@H](CCCCN)C(=O)N[C@@H](CCCCN)C(=O)N[C@@H](Cc1c[nH]c2ccccc12)C(=O)N[C@@H](CC(C)C)C(=O)N[C@@H](CC(C)C)C(N)=O [M8(BL)-20] (I: Ac-TFFRFLNRGGGK[Aoc]FIRKFLKKWLL-NH2 / II: H-DAANEAGGG; amide I:12-II:C) was run?
**A.** Its MIC is 6.25 µM (≈ 23.7 µg/mL).

**Q.** What about the MIC (P. aeruginosa [2]) of the same compound?
**A.** Its MIC is 50 µM (≈ 190 µg/mL).

**Q.** And the MIC (S. epidermidis [3])?
**A.** Its MIC is 6.25 µM (≈ 23.7 µg/mL).

**Q.** What about the MIC (E. coli [4]) of the same compound?
**A.** The MIC was 5.97 ± 0.94 µM (≈ 22.7 µg/mL).

**Q.** What about the MIC [5] of the same compound?
**A.** Its MIC is 6.88 ± 1.98 µM (≈ 26.1 µg/mL).

**Q.** And the MIC [6]?
**A.** Its MIC is 18.05 ± 6.58 µM (≈ 68.6 µg/mL).

**Q.** What about the “S. mutans growth (OD600) after treatment” value (S. mutans [7]) of the same compound?
**A.** The value was “effectively retarded”.

**Q.** What about the “surviving S. mutans cfu/mL” value (S. mutans [8]) of the same compound?
**A.** The value was “greatly reduced compared to input cfu/mL”.

**Q.** What about the “surviving P. aeruginosa cfu/mL” value (P. aeruginosa [9]) of the same compound?
**A.** Its value is “not affected or affected to a lesser extent”.

**Q.** What about the “surviving E. coli cfu/mL” value (E. coli [10]) of the same compound?
**A.** Its value is “not affected or affected to a lesser extent”.

**Q.** And the “surviving S. epidermidis cfu/mL” value (S. epidermidis [11])?
**A.** The value was “not affected or affected to a lesser extent”.

**Q.** O=C1OC2(c3cc(I)c(O)c(I)c3Oc3c2cc(I)c(O)c3I)c2c(Cl)c(Cl)c(Cl)c(Cl)c21 [RB, rose bengal] was tested. Which “decrease in cfu/mL, dark controls” value (S. mutans UA140 biofilms) did it give?
**A.** The value was “appreciable decreases in cfu/mL were not observed”.

**Q.** And the “ratio of surviving S. mutans:non-cariogenic streptococci cfu” value [12]?
**A.** The value was about 1.

**Q.** What about the IC50 (BHK-21 fibroblasts; 5 min dark) of the same compound?
**A.** Its IC50 is over 100 µM.

**Q.** What about the “photo-associated (light-dependent) toxicity” value (BHK-21 fibroblasts; blue light exposure) of the same compound?
**A.** Its value is “light-dependent toxicity was observed”.

From patent publication US9597407B2, “Targeted antimicrobial moieties” (C3 Jian, Inc., priority 2009, dated 2017)
